{"source": "paper PMC4033579", "about": "(Journal of experimental therapeutics & oncology, 2012)", "origin": "cited, not measured here", "key": {"[1]": {"system": "breast, ovarian, prostate tumor cells", "details": "prostate cells in culture"}}, "data": [{"smiles": "Cc1cc(Nc2nc(N[C@@H](C)c3ncc(F)cn3)ncc2Cl)[nH]n1", "note": "[AZD 1840]", "values": [{"measurement": "cytotoxicity at concentrations that inhibit Tyr705 phosphorylation", "setting": "[1]", "result": "not cytotoxic"}, {"measurement": "angiogenesis in human tumor xenografts", "setting": "human tumor xenografts", "result": "reduction in angiogenesis"}, {"measurement": "growth of human tumor xenografts", "setting": "human tumor xenografts", "result": "reduced growth"}]}]}
